{"source": "patent US7919475B2", "about": "“Compositions and methods for improving heart function” (The Regents of The University of California, priority 2004, dated 2011)", "key": {"SERCA2a": {"tested_on": "SERCA2a", "experiment": "SERCA2a protein level by Western immunoblot in neonatal cardiomyocytes", "assay_type": "cell-based, rat", "conditions": "for influence on SERCA2a protein levels: 40 μM aminoguanidine or 0.5 μg/ml tunicamycin, regardless of glucose concentration", "procedure": "(§1) Cardiomyocyte Isolation and Culture. Primary cultures of neonatal rat cardiomyocytes were prepared as described previously, see, e.g., Hartong (1996) J. Mol. Cell. Cardiol. 28:2467-2477. Cells were plated onto gelatin-coated culture dishes or laminin-coated glass chamber slides. Plating medium consisted of 4.25:1 DMEM:M199, 10% horse serum, 5% fetal bovine serum, 1% penicillin/streptomycin/fungizone (PSF), and 5.5 mM D-glucose. Cells were allowed to adhere to the plates for 24 hours before changing to basic experimental culture medium (4.5:1 DMEM:M199, 2% fetal bovine serum, 1% PSF, and 100 μM insulin) and supplemented with glucose at either physiological (5.5 mM; normal glucose) or elevated (25 mM; high glucose) concentrations. For some experiments, media was supplemented with 8 mM glucosamine, 40 μM aminoguanidine, 0.5 μg/ml tunicamycin, 50 μM PUGNAc or an osmotic control (20 mM mannitol). In cases where cells were plated at exceptionally high density (5×10^6 per 100 mm plate), the culture medium was changed daily until the cells were harvested.\nWestern Immunoblotting. To determine SERCA2a protein levels, myocytes (1×10^6) were washed with phosphate buffered saline (PBS), then extracted with 0.2 ml lysis buffer (20 mM Tris, pH 7.4, 20 mM NaCl, 0.1 mM EDTA, 1% Triton X-100, 0.5% Na-deoxycholate, 1 mM dithiothreitol). Lysates were incubated on ice for 30 min, and cellular debris was pelleted at 10,000×g for 20 min at 4° C. Protein concentration in the supernatant was determined by BioRad protein reagent. 30 μg of protein diluted in extraction buffer and 4× Laemmli sample buffer were loaded without boiling onto pre-cast 4-20% Tris-glycine gels. Separated proteins were transferred to nylon membranes using a Bio-Rad Mini Trans-Blot apparatus and blocked overnight at 4° C. Blots were incubated with a rabbit polyclonal SERCA2a antibody (see, e.g., Hartong (1996) supra) (1:5000) for 1 hour at RT, followed by a 1 hour incubation with a 1:5000 dilution of goat anti-rabbit IgG-HRP conjugated secondary antibody (Amersham). Bands were visualized by reacting with chemiluminescent substrate (NEN) and exposed to film. Protein bands were quantified from scanned images using Scion imaging software (Scion, Frederick, Md.).\nSERCA2a in RNA, protein expression and promoter activity. […] FIG. 2 illustrates Northern and western blots of neonatal cardiomyocytes. (FIG. 2A) Results of a northern blot for SERCA2a mRNA in neonatal cardiomyocytes cultured for 72 hours with 5.5 mM (NG) or 25 mM (HG) glucose. Total RNA (15 μg) isolated from cultured myocytes was resolved using a denaturing agarose gel, transferred to a nylon membrane and probed with a full length ^32P-labeled probe corresponding to rat SERCA2a as described in “Experimental Procedures”. (FIG. 2B) Western immunoblot analysis of SERCA2a protein levels from neonatal cardiomyocytes exposed to 5.5 mM or 25 mM glucose in the presence and absence of 40 μM aminoguanidine (AG), 0.5 μg/ml tunicamycin (Tun), or 8 mM glucosamine (GlcN, 5.5 mM glucose group only). Crude lysates (30 μg) were resolved using 4-20% gradient SDS-PAGE gels, transferred to nylon membranes, and immunoblotted with a SERCA2a polyclonal antibody as described in “Experimental Procedures”. […] (C) SERCA2a protein levels based on Western immunoblots from adenovirus-infected neonatal cardiomyocytes."}, "[1]": {"tested_on": "neonatal rat cardiomyocytes", "experiment": "Indo-1 [Ca2+]i transients in cultured neonatal cardiomyocytes", "assay_type": "cell-based", "conditions": "for time to achieve a 50% decrease in the calcium transient (T1/2): 5.5 mM glucose supplemented with 8 mM glucosamine or 50 μM PUGNAc, 72 hours; for increase in diastolic calcium decay relative to controls: 5.5 mM glucose with 8 mM glucosamine or 50 μM PUGNAc", "procedure": "as §1\nConstruction of adenoviral vectors. The rat cDNA corresponding to the UDP-N-acetylglucosamine:peptide N-acetylglucosaminyl transferase gene (O-GlcNAc transferase; OGT), which encodes the enzyme responsible for the O-linkage of single N-acetylglucosamine molecules to serine/threonine residues (19), and the human cDNA encoding the O-GlcNAcase gene (GCA), the enzyme responsible for removing O-linked N-acetylglucosamine residues (see, e.g., Haltiwanger (1992) J. Biol. Chem. 267:9005-9013). Each cDNA was inserted into the E1 region of an adenoviral vector construct using previously described methods (see, e.g., Gao (2001) J. Biol. Chem. 276:9838-9845). Replication-deficient adenovirus particles containing the target gene or empty vector (SR−) were generated by in vivo recombination in 293 cells and single plaques were isolated and propagated to achieve high titer. Adenoviral particles were CsCl-purified and quantified by plaque titer assay. Myocytes were infected with a multiplicity of infection (MOI) of 25 for all viruses.\nMeasurement of [Ca^2+]I transients. Indo-1 facilitated measurement of Ca^2+ transients has been described previously, see, e.g., He (1997) J. Clin. Invest 100:380-389). […] Cells were rinsed and incubated for 20 min at RT in appropriate serum-free culture medium containing 1.8 mM CaCl2 prior to making fluorescence measurements to allow for deesterification of the Indo-1/AM. […] Transients were measured from at least 18 cells per slide per treatment. […]\nCalcium transients. To determine whether elevated extracellular glucose and increased O-GlcNAcylation would exert an effect on intracellular calcium flux, Indo-1 calcium transients were determined in neonatal rat cardiomyocytes. […]"}, "nuclear O-GlcNAcylation": {"tested_on": "nuclear O-GlcNAcylation", "experiment": "Nuclear O-GlcNAcylation by Western immunoblot (antibody 110.6) in neonatal cardiomyocytes", "assay_type": "cell-based, rat", "conditions": "72 hours; 25 mM glucose; 5.5 mM glucose with 8 mM glucosamine or 50 μM PUGNAc; 25 mM glucose with adenovirus MOI 25", "experimental": "Samples of each extract (25-50 μg) were fractionated by SDS-PAGE on precast 4-20% Tris-glycine gels (BioRad) and transferred to nylon membranes. Membranes were blocked overnight, exposed to the O-GlcNAc-specific antibody 110.6 (17) (1:10,000) overnight at 4° C., then exposed for 1 hour to 1:5,000 goat anti-mouse IgM-HRP. Alternatively, membranes were exposed to anti-MEF-2 (1:200) for one hour at RT followed by a one hour exposure to 1:10,000 goat anti-rabbit IgG-HRP. Visualization and quantification was as described above.\nCells were cultured for 72 hours in 5.5 mM glucose (NG) or 25 mM glucose (HG) and supplemented with one of the following: 8 mM glucosamine (NG/GlcN), 50 μM PUGNAc, or adenovirus encoding either OGT or GCA. Adenoviruses were applied at an MOI=25. Nuclear extracts (50 μg) were prepared according to the methods outlines in “Experimental Procedures”, resolved on 4-20% gradient SDS-tricine gels, transferred to nylon membranes and immunoblotted with a monoclonal anti-O-GlcNAc antibody 110.6."}, "CB6F1 mice": {"tested_on": "CB6F1 mice", "experiment": "Blood glucose and cardiac UDP-sugar nucleotides in streptozocin-injected mice", "assay_type": "in vivo, mouse", "conditions": "streptozocin 150 mg/kg intraperitoneal, three weeks", "procedure": "Animals and Determination of Cardiac Sugar Nucleotides. Male CB6F1 mice weighing 20-25 g (Charles River, Wilmington, Mass.) were made diabetic using methods described previously, see, e.g., Trost (2002) supra. Briefly, diabetes was induced with a single intraperitoneal injection of streptozocin (150 mg/kg in citrate saline, pH 4.5) to animals fasted overnight (16 hrs). Diabetic animals were sacrificed three weeks following injection. To determine the degree of diabetes, blood was drawn via direct cardiac puncture in CO2-euthanized animals and plasma glucose concentration was determined using the Sigma Glucose Kit (510-A).\nSugar nucleotides were extracted from fresh ventricles and quantified by HPLC as described by Weckbecker (1983) Anal. Biochem. 132:405-412. Hearts were homogenized in 3 vols of ice-cold 0.3 M HClO4 and debris pelleted at 10,000×g for 15 min at 4° C. Two vols of 1:4 trioctylamine: 1,1,2-trichlorotrifluoroethane (Freon) were added to the supernatant, followed by vortexing for 30 sec and centrifuging at 1000×g for 5 min at 4° C. The aqueous phase was carefully transferred to a fresh tube and frozen at −80° C. until assayed. Samples were diluted in 0.5 ml H2O and desalted on a Mono-Q column (flow rate 1 ml/min). The combined UDP-GlcNAc/GalNAc fraction was collected as a peak at 23 minutes and the sample was lyophilized overnight. Dried samples were subsequently dissolved in borate solution (0.22 M boric acid, 0.09 M disodium tetraborate, and 1.2 M glycerol, pH 6.85), and separated into distinct UDP-GlcNAc and UDP-GalNAc peaks on a Partisil SAX-10 column. […]\nEffects of STZ-induced diabetes on UDP-nucleotide levels. […] Blood was drawn via direct cardiac puncture and plasma [glucose] was subsequently determined using a Sigma Glucose kit. Sugar nucleotides were extracted immediately from hearts and quantitated using HPLC as described in “Experimental Procedures” above. […] Fractions were quantified by comparing total peak area with results from known concentrations of each sugar nucleotide."}, "MEF-2a": {"tested_on": "MEF-2a", "experiment": "MEF-2a protein level by immunoblot of nuclear extracts of neonatal cardiomyocytes", "assay_type": "cell-based, rat", "conditions": "25 mM glucose; 5.5 mM glucose with 8 mM glucosamine; 25 mM glucose with adeno-OGT MOI 25", "experimental": "To examine cellular O-GlcNAcylation and MEF-2a levels, nuclear extracts were prepared from neonatal cardiomyocytes (2×10^6) using modifications of the procedures described by Dignam (1983) Nucleic Acids Res. 11:1475-1489. Samples of each extract (25-50 μg) were fractionated by SDS-PAGE on precast 4-20% Tris-glycine gels (BioRad) and transferred to nylon membranes. Membranes were blocked overnight, exposed to the O-GlcNAc-specific antibody 110.6 (17) (1:10,000) overnight at 4° C., then exposed for 1 hour to 1:5,000 goat anti-mouse IgM-HRP. Alternatively, membranes were exposed to anti-MEF-2 (1:200) for one hour at RT followed by a one hour exposure to 1:10,000 goat anti-rabbit IgG-HRP. Visualization and quantification was as described above.\nNuclear extracts (50 μg) were prepared as described in “Experimental Procedures” above, resolved on 10% SDS-PAGE gels, transferred to nylon membranes and immunoblotted with anti-MEF2 antibody (Santa Cruz Biotech)."}, "rat SERCA2a promoter": {"tested_on": "rat SERCA2a promoter", "experiment": "SERCA2a promoter luciferase assay in neonatal cardiomyocytes", "assay_type": "cell-based", "conditions": "5.5 mM glucose/8 mM glucosamine", "procedure": "Transfections and SERCA2a Promoter Luciferase Assays. DNA transfection of neonatal cardiomyocytes was performed using the calcium phosphate-DNA co-precipitation method, see, e.g., Chen (1987) Mol. Cell. Biol 7:2745-2752. Cells (0.5×10^6) were transfected overnight in appropriate culture medium (either NG- or HG-containing medium) with 50 ng of either a 0.6 kb fragment of the rat SERCA2a promoter (corresponding to the 600 bases immediately upstream of the transcriptional start codon) (see, e.g., Rohrer (1991) J. Biol. Chem. 266:8638-8646) or a control plasmid (pGL3; Promega) and 3 μg of fill plasmid (pBS; Stratagene), then washed with PBS and changed into fresh culture medium. […] Transfected cells were incubated for 48 hours, then washed with PBS and incubated for 10 min with gentle agitation at RT in 200 μl of harvest buffer (50 mM MES/Tris pH 7.8, 0.1% Triton X-100, and 1.3 mM dithiothreitol). Luciferase activity was measured using 100 μl of extract in a luminometer.\nThe reduction in SERCA2a mRNA and protein expression observed following treatment of myocytes with high glucose prompted us to examine whether these effects were being exerted, at least in part, by interactions with the SERCA2a gene promoter. […] Crude cell lysates were incubated with luciferase substrate and relative light units were measured on a luminometer. […]"}}, "data": [{"compound": "tunicamycin", "values": [{"measurement": "influence on SERCA2a protein levels", "setting": "SERCA2a", "result": "Neither aminoguanidine nor tunicamycin appeared to influence SERCA2a protein levels"}]}, {"compound": "OC[C@@H](O)[C@@H](O)[C@H](O)[C@H](O)CO", "note": "[mannitol]", "values": [{"measurement": "osmotic effect on SERCA2a protein levels", "setting": "SERCA2a; 5.5 mM glucose and 20 mM mannitol", "result": "nor did we observe any osmotic effect"}]}, {"compound": "CC(=O)N[C@H]1/C(=N/OC(=O)Nc2ccccc2)O[C@H](CO)[C@@H](O)[C@@H]1O", "note": "[PUGNAc, O-(2-acetamido-2-deoxy-D-glucopyranosylidene)amino-N-phenyl carbamate]", "values": [{"measurement": "time to achieve a 50% decrease in the calcium transient (T1/2)", "setting": "[1]", "result": "1.31 ± 0.085", "unit": "s"}, {"measurement": "increase in diastolic calcium decay relative to controls", "setting": "[1]", "result": 43, "unit": "%"}, {"measurement": "overall levels of nuclear O-GlcNAcylation", "setting": "nuclear O-GlcNAcylation", "result": "substantially increased"}]}, {"compound": "CN(N=O)C(=O)N[C@@H](C=O)[C@@H](O)[C@H](O)[C@H](O)CO", "note": "[STZ, streptozocin]", "values": [{"measurement": "UDP-GalNAc in heart", "setting": "CB6F1 mice", "result": "0.51 ± 0.01", "unit": "nmol"}, {"measurement": "UDP-GlcNAc in heart", "setting": "CB6F1 mice", "result": "1.36 ± 0.03", "unit": "nmol"}, {"measurement": "blood glucose", "setting": "CB6F1 mice", "result": "969 ± 40", "unit": "mg/dL"}]}, {"compound": "N=C(N)NN", "note": "[aminoguanidine]", "values": [{"measurement": "influence on SERCA2a protein levels", "setting": "SERCA2a", "result": "Neither aminoguanidine nor tunicamycin appeared to influence SERCA2a protein levels"}, {"measurement": "apparent increase in SERCA2a vs controls", "setting": "SERCA2a; 25 mM glucose and 40 μM aminoguanidine, repeated trials", "result": "not statistically significant"}]}, {"compound": "N[C@H]1C(O)O[C@H](CO)[C@@H](O)[C@@H]1O", "note": "(some centres unmarked) [glucosamine]", "values": [{"measurement": "time to achieve a 50% decrease in the calcium transient (T1/2)", "setting": "[1]", "result": "1.32 ± 0.061", "unit": "s"}, {"measurement": "increase in diastolic calcium decay relative to controls", "setting": "[1]", "result": 43, "unit": "%"}, {"measurement": "overall levels of nuclear O-GlcNAcylation", "setting": "nuclear O-GlcNAcylation", "result": "substantially increased"}, {"measurement": "change in SERCA2a protein compared with controls", "setting": "SERCA2a; 5.5 mM glucose and 8 mM glucosamine", "result": "−25±3", "unit": "%"}, {"measurement": "SERCA2a protein levels compared with myocytes exposed only to 5.5 mM glucose", "setting": "SERCA2a; 25 mM glucose and glucosamine", "result": "unchanged"}, {"measurement": "decrease in MEF-2a expression levels compared with normal glucose controls", "setting": "MEF-2a", "result": 52, "unit": "%"}, {"measurement": "reduction in SERCA2a promoter activity compared with normal glucose controls", "setting": "rat SERCA2a promoter", "result": 33, "unit": "%"}]}]}
